A short description of series [1]: BBB-PAMPA permeability assay. Type of series: in vitro ADME. On the technique in general: PAMPA measures passive passage across an artificial lipid membrane.
For series [2], the target named is CYP3A4 (Homo sapiens, UniProt P08684). As to the kind of experiment: CYP inhibition screening, CYP3A4-Midazolam. The format is in vitro ADME.
The subject of series [3] is CYP3A. As to the kind of experiment: CYP inhibition screening, CYP3A-Testosterone. Type of series: in vitro ADME.
Series [4] deals with CYP2C9 (Homo sapiens, UniProt P11712). The series can be described thus: CYP inhibition screening, CYP2C9. Type of series: in vitro ADME.
Series [5] deals with CYP2D6 (Homo sapiens, UniProt P10635). As to the kind of experiment: CYP inhibition screening, CYP2D6. The format is in vitro ADME.
Series [6] concerns the target CYP2C19 (Homo sapiens, UniProt P33261). The series can be described thus: CYP inhibition screening, CYP2C19. The format is in vitro ADME.
Series [7] deals with T1, CYP1A2 (Homo sapiens, UniProt P05177).
T1 sequence (P05177 1-516): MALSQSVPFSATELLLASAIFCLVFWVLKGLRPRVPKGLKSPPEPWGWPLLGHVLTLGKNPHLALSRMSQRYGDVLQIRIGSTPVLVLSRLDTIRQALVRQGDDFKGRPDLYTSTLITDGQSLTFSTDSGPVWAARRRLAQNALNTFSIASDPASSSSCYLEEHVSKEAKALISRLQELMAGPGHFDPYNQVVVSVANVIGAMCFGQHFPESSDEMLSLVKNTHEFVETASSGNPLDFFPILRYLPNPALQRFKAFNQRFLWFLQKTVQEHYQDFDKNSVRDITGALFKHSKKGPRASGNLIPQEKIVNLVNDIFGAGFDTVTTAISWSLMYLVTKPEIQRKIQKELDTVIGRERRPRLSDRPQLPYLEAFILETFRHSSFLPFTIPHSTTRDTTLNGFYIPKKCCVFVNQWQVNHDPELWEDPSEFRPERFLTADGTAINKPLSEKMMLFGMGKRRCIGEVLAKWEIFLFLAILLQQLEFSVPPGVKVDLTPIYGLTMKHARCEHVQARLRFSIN
The series can be described thus: CYP inhibition screening, CYP1A2. Type of series: in vitro ADME.

The test system of series [8] is AEP. As to the kind of experiment: AEP activity in OGD-treated primary neurons. The format is cell-based. Conditions: 0.1 μM or 1.0 μM compound, 5 μM Cbz-Ala-Ala-Asn-AMC. As for the experimental part: (§1) A. AEP activity, measured in primary neuronal cultures with 5 μM Cbz-Ala-Ala-Asn-AMC (x-axis denotes neurons were treated with 0.1 μM or 1.0 μM specified compound). B. Caspase activity, measured in primary neuronal cultures with 5 μM Ac-Asp-Glu-Val-Asp-AMC. C. Cathepsin activity, measured in primary neuronal cultures with 5 μM D-Val-Leu-Lys-AMC. D. Inhibition of APP cleavage. Lysates of primary cortical neurons pre-incubated with compounds for 30 min, underwent OGD for 4 hrs, were reperfused for 18 hrs (normoxia neurons remained at normoxic conditions). E. APP can be cleaved in a dose-dependent manner. Lysates of primary cortical neurons pre-incubated with compounds for 30 min, underwent OGD for 4 hrs, were reperfused for 18 hrs (normoxia neurons remained at normoxic conditions).
Depriving cells of oxygen and glucose is a cellular model that is employed to trigger acidosis in cultured cells. The efficacy of the compounds in a cellular model of oxygen-glucose deprivation (OGD) was determined in an effort to mimic the effects of stroke in primary cultured neurons. As a result of depriving neurons of oxygen and glucose-containing medium, AEP activity was doubled (FIG. 7A, ‘DMSO-Norm’ compared to ‘DMSO-OGD’), while Caspase-3 and Cathepsin activities remained relatively unchanged. […]

In series [9] the test system is amyloid precursor protein (APP) cleavage. The series can be described thus: APP cleavage in OGD-treated primary cortical neurons. Type of series: cell-based. The procedure:
as §1
Depriving cells of oxygen and glucose is a cellular model that is employed to trigger acidosis in cultured cells. The efficacy of the compounds in a cellular model of oxygen-glucose deprivation (OGD) was determined in an effort to mimic the effects of stroke in primary cultured neurons. As a result of depriving neurons of oxygen and glucose-containing medium, AEP activity was doubled (FIG. 7A, ‘DMSO-Norm’ compared to ‘DMSO-OGD’), while Caspase-3 and Cathepsin activities remained relatively unchanged. […] Cleavage of APP is observed in response to only DMSO treatment (FIG. 7D, lane 2), and it appears that upon the treatment of 1 μM of compounds 10, 11, and 12, and just 0.1 μM of compound s31, 38 and 64, the cleavage was blocked, presumably due to AEP inhibition.

Series [10] has as its system Caco-2 monolayer. The series can be described thus: Caco-2 monolayer permeability screen. Conditions: Table 1. A general note: Passage across Caco-2 layers is used to estimate intestinal permeability.
Method: To explore the in vitro ADME profiles of the compounds, additional tests were conducted.
Series [11] can be described thus: Human liver microsomal stability screen. Conditions: Human liver microsomes. In general terms: Liver microsomes are a subcellular fraction often used to study metabolism.
The nature of series [12]: Mouse liver microsomal stability screen. To be noted: Mouse liver microsomes.
Series [13] deals with T2, AEP (Homo sapiens, UniProt Q99538).
T2 construct: tested with purified active AEP, IC50 values for the top 8 candidates were found
T2 sequence (Q99538 18-323 limits assumed): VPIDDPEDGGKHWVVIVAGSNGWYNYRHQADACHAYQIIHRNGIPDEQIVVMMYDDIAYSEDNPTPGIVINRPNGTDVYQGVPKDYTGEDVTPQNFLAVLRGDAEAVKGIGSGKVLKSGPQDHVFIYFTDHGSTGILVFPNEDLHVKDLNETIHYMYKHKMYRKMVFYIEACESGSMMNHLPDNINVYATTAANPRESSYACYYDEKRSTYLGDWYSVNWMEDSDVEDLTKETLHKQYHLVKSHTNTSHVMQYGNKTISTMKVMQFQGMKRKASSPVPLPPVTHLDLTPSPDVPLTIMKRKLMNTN
As to the kind of experiment: IC50 assay with purified recombinant AEP. Type of series: biochemical. Conditions: purified active AEP; read-out: IC50 toward AEP. The procedure: Purified recombinant enzyme was incubated with various concentrations of inhibitor in appropriate assay buffers in the presence of increasing concentrations of inhibitor. The formation of fluorescent product was monitored in duplicate reactions and the data was fit to appropriate equations to calculate the IC50 values.
To identify small-molecule inhibitors of AEP, a high-throughput screen was designed in conjunction with the Emory Chemical Biology Discovery Center. The screen incorporated mouse kidney lysates to assay a 54,384 compound library. […] Additional structural analysis and grouping allowed the compounds to be sorted into 8 distinct backbone families. […] The specificity of the compounds was also determined using four major cysteine proteases (FIG. 2).
Various concentrations of the appropriate compound were incubated with AEP reaction buffer (50 mM Sodium Citrate pH 5.5, 0.1% CHAPS, 60 mM Na2HPO4, 1 mM EDTA, final pH 6.0) and peptide substrate, 10 μM Cbz-Ala-Ala-Asn-AMC (Bachem). The reaction was initiated upon addition of 50 nM AEP and fluorescent product formation was monitored over 15 min. […] Data were analyzed with GraFit version 5.0.11 software package.

Series [14] deals with Cathepsin-L (Homo sapiens, UniProt P07711). As to the kind of experiment: Specificity assay against Cathepsin-L. The format is biochemical.
Series [15] concerns the target T3, endogenous AEP in human B lymphoblastoid pala cells (Homo sapiens, UniProt Q99538).
T3 construct: human B lymphoblastoid pala cells, which are rich in endogenous AEP; endogenous in cells; host or cells: human B lymphoblastoid Pala cells
T3 sequence (Q99538 18-323): T2 sequence (Q99538 18-323 limits assumed)
The series can be described thus: AEP inhibition in intact Pala cells. Type of series: cell-based. To be noted: 2 hrs incubation, residual enzymatic activity in lysate. The procedure:
The cells were incubated with inhibitors for 2 hrs then cells washed, harvested and lysed and the residual enzymatic activity was determined. Lysate was normalized by Bradford assay and the experiment was performed in triplicate and the mean results and SEM were plotted.
In an attempt to assess the activity of the compounds in intact cells, the compounds were incubated with human B lymphoblastoid pala cells, which are rich in endogenous AEP and have been used for inhibiting AEP in cellular assay.

Series [16] deals with T2, AEP. As to the kind of experiment: DTT / L-cysteine reversibility of AEP inhibition. The format is biochemical. Conditions: 10 mM DTT or L-cysteine added after 15 min. The procedure: AEP was reacted with specified inhibitor, after 15 min 10 mM DTT or L-cysteine was added to the reaction and the fluorescent signal was read for an additional 15 min. At the end of the second 15 min incubation, the percentage of product formed in the presence of each compound was determined in comparison to the DMSO control reaction.
Although it is not intended that embodiments of this disclosure be limited by any particular mechanism, to gain additional insight into the mechanism utilized by the inhibitors for abrogation of AEP activity, their reversibility in the presence of free thiols was determined. The addition of a strong reducing agent, such as DTT, or a weaker reducing agent, L-cysteine, to an inhibited reaction can be used to out-compete the inhibitory agent and restore catalytic activity to an enzyme with an active-site thiol residue. Here, a similar approach was used by adding a reducing agent, either DTT or L-cysteine, to a reaction, in which AEP had been incubated with a specified inhibitor, in an attempt to reverse the effects of the inhibitor. […] For compounds BB1 and 38, this increase in enzymatic activity may be due to the reduction of a disulfide linkage between the inhibitor and the enzyme, since these compounds contain thiols. Compound 10 contains a thiocyanate and may undergoes nucleophilic attack by the enzyme's active-site thiolate to form a thioimidate enzyme-inhibitor complex. Under acidic conditions, this complex is reducible by either a strong reducing agent, such as DTT, or the weaker L-cysteine.

The target of series [17] is T2, AEP. The series can be described thus: Inhibition kinetics assays (steady-state, Z-AAN-AMC). Type of series: biochemical. Conditions: competitive inhibition. As for the experimental part:
(§2) KI values for each inhibitor were determined by global fits to the competitive inhibition equation. C. Time course inactivation assays were used to generate progress curves, depicting product formation as a function of time. […] E. Time course inactivation assays were used to generate progress curves, depicting product formation as a function of time. Pseudo first-order rate constants were obtained at each concentration of compound BB1. F. Re-plot of the pseudo first-order rate constants, kobs, vs. the concentration of compound BB1.
(§3) A. Michaelis-Menten plots displaying competitive inhibition of AEP. The inhibition constant, K1, was determined from the globally fit data. B. Double reciprocal Lineweaver-Burk plots also displaying competitive inhibition. C. […] DC. A plot of the corrected kobs values obtained from each curve in (B) versus the concentration of compound 38, which enabled the calculation of the second-order rate constant, kinact/KI to be determined to measure the potency of the inhibitor.
To determine the inhibition constants and the mechanism by which compound 38 inhibits AEP, the steady-state kinetic parameters for the hydrolysis of the peptide substrate, Z-AAN-AMC, were determined in the absence or presence of increasing concentrations of inhibitor. In these assays, specified concentrations of the inhibitor were pre-incubated with substrate for 10 min at 37° C., then 50 nM AEP was added to initiate the reaction, which was quenched after 10 min. […]
In the equations, Kii is the intercept Ki, and Kis is the slope Ki. The mode of the inhibition induced by the compounds on AEP was determined by the best fit of the data to equations 1-4. […]

The target in series [18] is T2, AEP. As to the kind of experiment: Time course inactivation assays. The format is biochemical. The procedure: as §2, §3
Progress curves were generated by incubating 5 μM Z-AAN-AMC and the specified concentration of inhibitor in assay buffer at 37° C. for 10 min. The reaction was initiated by the addition of 50 nM AEP and quenched after 10 min. The concentration of the product was determined from an AMC standard curve and the data was fit by nonlinear regression. Since the curves were nonlinear, they were fit to equation 5, using the GraFit version 5.0.11 software package, [Product]=vi(1−e^−kobs.app*t)/kobs.app (eq 5), where vi is the initial velocity, kobs.app is the apparent pseudo-first order rate constant for inactivation, and t is time. Equation 6, kobs=[…] (eq 6), was used to correct the apparent pseudo-first-order inactivation rate constants, obtained from this analysis, for substrate concentration and the pseudo-first-order inactivation rate constants, i.e. kobs, thus obtained, were plotted against the tested inhibitor concentrations. […]

Some results are limits rather than exact numbers.

Chain of CYP2D6 (P10635 whole entry): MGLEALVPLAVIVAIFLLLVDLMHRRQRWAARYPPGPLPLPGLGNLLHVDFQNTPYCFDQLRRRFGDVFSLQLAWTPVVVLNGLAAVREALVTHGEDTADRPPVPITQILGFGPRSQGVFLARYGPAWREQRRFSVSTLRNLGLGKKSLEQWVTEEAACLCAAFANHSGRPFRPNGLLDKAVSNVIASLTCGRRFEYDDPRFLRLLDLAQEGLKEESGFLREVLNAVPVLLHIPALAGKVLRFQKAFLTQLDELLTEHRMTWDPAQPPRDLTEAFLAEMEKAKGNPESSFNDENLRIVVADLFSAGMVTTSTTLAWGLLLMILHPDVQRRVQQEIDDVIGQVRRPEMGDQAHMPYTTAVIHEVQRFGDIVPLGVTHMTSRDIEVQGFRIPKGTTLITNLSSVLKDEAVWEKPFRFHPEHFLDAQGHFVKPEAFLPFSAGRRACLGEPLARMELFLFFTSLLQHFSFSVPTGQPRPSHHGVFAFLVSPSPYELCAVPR
Chain of CYP2C19 (P33261 whole entry): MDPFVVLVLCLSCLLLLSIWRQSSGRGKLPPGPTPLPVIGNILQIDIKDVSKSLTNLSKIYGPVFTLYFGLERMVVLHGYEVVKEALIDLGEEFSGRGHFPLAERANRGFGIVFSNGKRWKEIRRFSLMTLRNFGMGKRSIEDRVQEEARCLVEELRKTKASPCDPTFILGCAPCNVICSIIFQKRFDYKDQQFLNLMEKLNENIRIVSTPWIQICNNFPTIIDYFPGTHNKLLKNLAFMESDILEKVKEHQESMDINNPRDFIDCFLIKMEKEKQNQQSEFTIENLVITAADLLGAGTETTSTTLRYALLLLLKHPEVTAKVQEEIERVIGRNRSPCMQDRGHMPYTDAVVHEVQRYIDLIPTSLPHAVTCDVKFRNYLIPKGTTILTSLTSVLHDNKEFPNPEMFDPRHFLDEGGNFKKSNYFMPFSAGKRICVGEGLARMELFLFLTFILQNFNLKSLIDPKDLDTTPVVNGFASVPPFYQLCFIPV
Chain of CYP2C9 (P11712 whole entry): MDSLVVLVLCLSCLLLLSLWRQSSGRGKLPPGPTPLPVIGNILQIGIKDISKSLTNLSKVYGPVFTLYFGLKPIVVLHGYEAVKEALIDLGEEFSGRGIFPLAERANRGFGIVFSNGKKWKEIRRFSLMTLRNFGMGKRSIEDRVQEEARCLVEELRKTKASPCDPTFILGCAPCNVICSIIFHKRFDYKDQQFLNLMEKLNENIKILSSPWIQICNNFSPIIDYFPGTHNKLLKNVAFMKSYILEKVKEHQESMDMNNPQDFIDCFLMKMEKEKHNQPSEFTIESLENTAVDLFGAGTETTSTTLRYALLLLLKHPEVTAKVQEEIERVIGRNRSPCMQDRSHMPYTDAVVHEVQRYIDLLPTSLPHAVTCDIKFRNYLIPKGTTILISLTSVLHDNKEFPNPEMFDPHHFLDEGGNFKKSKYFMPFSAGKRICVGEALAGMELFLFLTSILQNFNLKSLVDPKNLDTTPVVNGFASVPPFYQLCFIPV
Chain of CYP3A4 (P08684 whole entry): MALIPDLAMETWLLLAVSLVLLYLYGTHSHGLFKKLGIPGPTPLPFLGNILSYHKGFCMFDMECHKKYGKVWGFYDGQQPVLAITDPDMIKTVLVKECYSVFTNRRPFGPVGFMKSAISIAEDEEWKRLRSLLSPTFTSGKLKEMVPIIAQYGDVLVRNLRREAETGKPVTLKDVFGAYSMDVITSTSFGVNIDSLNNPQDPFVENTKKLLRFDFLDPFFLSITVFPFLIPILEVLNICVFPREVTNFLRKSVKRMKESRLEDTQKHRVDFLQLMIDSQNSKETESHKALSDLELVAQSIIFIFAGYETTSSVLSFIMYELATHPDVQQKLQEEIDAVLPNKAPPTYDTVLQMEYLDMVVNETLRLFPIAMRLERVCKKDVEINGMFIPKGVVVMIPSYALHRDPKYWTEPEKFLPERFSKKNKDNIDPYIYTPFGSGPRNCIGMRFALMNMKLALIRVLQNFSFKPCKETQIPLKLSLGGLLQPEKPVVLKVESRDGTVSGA
Chain of Cathepsin-L (P07711 114-333, species assumed): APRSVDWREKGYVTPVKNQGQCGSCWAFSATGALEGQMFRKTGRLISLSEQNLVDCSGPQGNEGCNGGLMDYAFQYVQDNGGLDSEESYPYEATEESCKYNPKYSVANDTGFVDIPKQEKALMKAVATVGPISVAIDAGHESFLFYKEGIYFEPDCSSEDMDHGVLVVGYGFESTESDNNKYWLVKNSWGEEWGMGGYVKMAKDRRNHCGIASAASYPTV

`Cc1cccc(NCc2ccc(O)c3ncccc23)c1C` [Compound 12]: in [1], the Pe entry is recorded as “<LLOQ”. The CYP3A4-Midazolam inhibition in series [2] (3 μM) and in [2] (10 μM) was −2.5% throughout. Moreover, the CYP3A-Testosterone inhibition was 14.2% in series [3] (3 μM) and 27.6% in series [3] (10 μM). Moreover, the CYP2C9 inhibition in [4] (3 μM) was 4.3%; in series [4] (10 μM), −2.7%. Further, the CYP2D6 inhibition was 2.9% in [5] (3 μM) and −2.6% in series [5] (10 μM). Further, the results for the CYP2C19 inhibition in series [6] (3 μM) and in series [6] (10 μM) were 13.4% and 29.4%, respectively. For the same compound, the CYP1A2 inhibition was determined as 28.4% in [7] (3 μM) and 44.5% in series [7] (10 μM). For the same compound, the “AEP activity in OGD neurons” value in series [8] is recorded as “slight decrease”. The “APP cleavage after OGD” value in series [9] (1 μM compound) is on record as “blocked”. The “APP cleavage after OGD, dose dependence” value in series [9] (FIG. 7E) is on record as “dose-dependent decrease”. Also, the “A −>B Papp” value in [10] is on record as 1.4 10^−6 cm · s^−1. Besides, in series [10], the “B −> A Papp” value is given as 3.7 10^−6 cm · s^−1. Moreover, the RE in series [10] was determined as 2.7. The “Mean Remaining Parent (NADPH-free)” value in series [11] is listed as 1%; in [12], 0%. Moreover, the “Mean Remaining Parent (with NADPH)” value in [11] (30 min) and in series [12] was 1% in each case.
What is called IC50 is the concentration at which inhibition is half-maximal. In the case of `Sc1nnc(Nc2ccccc2)s1` [Compound BB1], the IC50 in series [13] is roughly 130 nM. Also, the “selectivity for AEP over Cathepsin-L” value in series [14] is “about 38 fold”. Also, in series [15], the “IC50 in intact Pala cells” value is “slightly larger IC50 values”. In [16], the “AEP activity after addition of reducing agent (reversibility)” value was “regained a substantial amount of activity”. The “inhibition constants in words” value in [17] is recorded as “nanomolar-range”. Besides, the “second-order rate constant, kinact/KI” value in [18] was 55000 M⁻¹ s⁻¹.

The values above are taken from patent US10759803B2, “Asparagine endopeptidase (AEP) inhibitors for managing cancer and compositions related thereto” (priority 2014, dated 2020).
